Results on 17 compounds are retold here after patent US6727076B2 (priority 1995, dated 2004).

Assay [1] deals with E. coli strain 14444 (MG1655 xylA). In kind it is cell-based.
The next assay relates to T. harzianum DAOM 190830. In kind it is cell-based, Trichoderma harzianum.
The subject of another assay is E. coli MG1655. It counts as cell-based.
The test system of the next assay is E. coli. In kind it is cell-based.
Assay [2] relates to Escherichia coli (ATCC#25922). The experiment in a line: microbe, parasite or virus in culture. In kind it is cell-based.
Assay [3] has as its system Staphylococcus aureus (ATCC #29213). In words: microbe, parasite or virus in culture. It counts as cell-based.
Assay [4] deals with E. coli strain 14445 (MG1655 himA). It counts as cell-based.
In assay [5] the test system is E. coli 287 (ATCC #11775). It counts as cell-based.
In assay [6] the test system is E. coli strain 14443 (MG1655 (FB426)). It counts as cell-based. Further: key: '+' indicates that the organism tested was capable of utilizing the carbon source listed; '−' indicates that the organism tested was not capable of utilizing the carbon source listed; 'w' indicates weak positive reactions.
The test system of assay [7] is E. coli strain 6320 (W3110). It counts as cell-based. Further: key: '+' indicates that the organism tested was capable of utilizing the carbon source listed; '−' indicates that the organism tested was not capable of utilizing the carbon source listed; 'w' indicates weak positive reactions.
Assay [8] concerns E. coli strain 6321 (MG1655). In kind it is cell-based. Further: key: '+' indicates that the organism tested was capable of utilizing the carbon source listed; '−' indicates that the organism tested was not capable of utilizing the carbon source listed; 'w' indicates weak positive reactions.
For assay [9], the system named is E. coli strain 6322 (EMG2 (K12, λF+)). In kind it is cell-based. Further: key: '+' indicates that the organism tested was capable of utilizing the carbon source listed; '−' indicates that the organism tested was not capable of utilizing the carbon source listed; 'w' indicates weak positive reactions.
The subject of assay [10] is E. coli strain 11547 (O157:H7). In kind it is cell-based.
Assay [11] relates to E. coli strain 13671 (O157:H? gur+). In kind it is cell-based.
For assay [12], the system named is E. coli strain 13673 (O157). It counts as cell-based.
Assay [13] has as its system E. coli strain 13675 (O157). It counts as cell-based.
The subject of the next assay is S. typhimurium hisF645. It counts as cell-based, Salmonella typhimurium.
Where [14] appears, read: Escherichia coli, ATCC25922, 18 h.
The mark [15] stands for this setting: Staphylococcus aureus, ATCC29213, 18 h.

The structures appear in SMILES notation. Values after ≈ are worked out from the molar mass of the structure shown. Where two headings read alike, the source gives them in different places.

`O=C(O)[C@@H]1CCCN1` [L-proline]: the “carbon source utilization, in words” value in [1] is listed as “negative”. Besides, the “carbon source utilization result” value in the assay on T. harzianum DAOM 190830 is “positive”. Further, the “suitability as nitrogen source (growth, purple color)” value (“suitability as nitrogen source” below) in the assay with E. coli MG1655 is “positive”. Besides, the “use as carbon source” value with E. coli is “can use”.

Consider `NC[C@H]1O[C@H](O[C@H]2[C@H](O)[C@@H](O[C@H]3O[C@H](CO)[C@@H](O)[C@H](N)[C@H]3O)[C@H](N)C[C@@H]2N)[C@H](O)[C@@H](O)[C@@H]1O` [Kanamycin, kanamycin], for which the MIC in assay [2] fell in the range of 8 to 16 µg/mL; in [2] (setting [14]), 16 to 32 µg/mL (≈ 33 to 66 µM); in assay [3] (setting [15]), 16 to 32 µg/mL (≈ 33 to 66 µM).

For the compound `C[C@H](O)[C@@H](N)C(=O)O` [D-threonine], in the assay on E. coli, the “use as carbon source” value was “can use”.

In the case of `N[C@@H](CCC(=O)O)C(=O)O` [L-glutamic acid], in assay [4], the “carbon source utilization, in words” value was “negative”. Further, the “carbon source utilization result” value with T. harzianum DAOM 190830 is “positive”. Further, in the assay with E. coli MG1655, the “suitability as nitrogen source” value was “positive”. Further, the “use as carbon source” value in the assay with E. coli is “can use”.

As to `N[C@@H](CO)C(=O)O` [L-serine], the “carbon source utilization result” value (in assay [5]; in the assay with T. harzianum DAOM 190830) was “positive” throughout. For the same compound, the “suitability as nitrogen source” value in the assay on E. coli MG1655 was “not suitable”. The “use as carbon source” value in the assay with E. coli was “can use”.

For `NC(=O)C[C@H](N)C(=O)O` [L-asparagine], the “carbon source utilization result” value (in assay [5]; in the assay with T. harzianum DAOM 190830) was “positive” each time. Besides, in the assay on E. coli MG1655, the “suitability as nitrogen source” value is given as “positive”. Besides, the “use as carbon source” value in the assay on E. coli is “can use”.

With `N[C@H](CC(=O)O)C(=O)O` [D-aspartic acid], the “suitability as nitrogen source” value in the assay on E. coli MG1655 was “not suitable”. Moreover, the “use as carbon source” value with E. coli was “can use”.

For the compound `CC1(C)S[C@@H]2[C@H](NC(=O)[C@H](N)c3ccccc3)C(=O)N2[C@H]1C(=O)O` [Ampicillin, ampicillin], the MIC was 2 to 4 µg/mL in [2], 1 to 2 µg/mL (≈ 2.86 to 5.72 µM) in [2] (setting [14]), 1 to 2 µg/mL in assay [3] and 1 to 4 µg/mL (≈ 2.86 to 11.4 µM) in assay [3] (setting [15]).

As to `NC(=O)CC[C@H](N)C(=O)O` [L-glutamine], the “suitability as nitrogen source” value in the assay with E. coli MG1655 is recorded as “positive”. In addition, the “use as carbon source” value with E. coli is listed as “can use”.

In the case of `N[C@H](CO)C(=O)O` [D-serine], the “carbon source utilization result” value in [5] was “positive”. Further, in the assay with E. coli MG1655, the “suitability as nitrogen source” value is recorded as “not suitable”. Also, the “use as carbon source” value with E. coli is given as “can use”.

Consider `C[C@@H](N)C(=O)O` [D-alanine], for which the “carbon source utilization result” value in assay [5] is reported as “positive”. In the assay on E. coli MG1655, the “suitability as nitrogen source” value is recorded as “positive”. Also, the “use as carbon source” value with E. coli is “can use”.

With `N[C@@H](CC(=O)O)C(=O)O` [L-aspartic acid], the “carbon source utilization result” value in assay [5] is given as “positive”. The “suitability as nitrogen source” value in the assay with E. coli MG1655 is on record as “positive”. In addition, the “use as carbon source” value with E. coli is reported as “can use”.

Regarding `OC[C@H]1O[C@H](OCC2O[C@@H](O)[C@H](O)[C@@H](O)[C@@H]2O)[C@H](O)[C@@H](O)[C@H]1O` (stereo partly drawn) [D-melibiose], the carbon source utilization entry in assay [6], in assay [1], in [4], in assay [7], in assay [8] and in assay [9] was “+” in each case. For the same compound, the carbon source utilization entry in [10], in assay [11], in [12] and in assay [13] was “+” each time. Also, the “carbon source utilization result” value (in assay [5]; with T. harzianum DAOM 190830) was “positive” each time.

Turning to `CN(C)[C@@H]1C(O)=C(C(N)=O)C(=O)[C@@]2(O)C(O)=C3C(=O)c4c(O)cccc4[C@@](C)(O)[C@H]3C[C@@H]12` [Tetracycline, tetracycline], the results for the MIC in assay [2] (setting [14]), in assay [3] and in assay [3] (setting [15]) were 0.5 to 1 µg/mL (≈ 1.13 to 2.25 µM), 0.25 to 1 µg/mL and 0.25 to 2 µg/mL (≈ 0.563 to 4.5 µM), respectively.

For the compound `N[C@@H](Cc1c[nH]cn1)C(=O)O` [L-histidine], the “carbon source utilization result” value in assay [5] is listed as “negative”. In addition, the “suitability as nitrogen source” value in the assay with E. coli MG1655 is “not suitable”. Further, in the assay on S. typhimurium hisF645, the “growth stimulation by supplement (well color)” value was “turned purple”.

As for `C[C@H](N)C(=O)O` [L-alanine], the “carbon source utilization result” value (in [5]; in the assay on T. harzianum DAOM 190830) was “positive” in each case. Also, the “suitability as nitrogen source” value with E. coli MG1655 is “not suitable”. In addition, the “use as carbon source” value in the assay with E. coli is “can use”.

Consider `C[C@@H](O)[C@H](N)C(=O)O` [L-threonine], for which the “carbon source utilization, in words” value in [1] and in assay [4] was “negative” in each case. The “suitability as nitrogen source” value with E. coli MG1655 is given as “not suitable”. For the same compound, the “use as carbon source” value in the assay with E. coli is on record as “can use”.
